Like-named read-outs stand apart in the source and are kept apart here.
Key:
[1] = Cytotoxicity assay in MT-4 cells; format: cell-based; settings: human; uninfected MT-4 cells, 5 days incubation, Cell Titer Glo; read-out: MT4 CC50
Protocol: (§1) Compounds were tested in a high-throughput 384-well assay format for their ability to inhibit the replication of HIV-1 (IIIB) in MT-4 cells. Compounds were serially diluted (1.3) in DMSO on 384-well polypropylene plates and further diluted 200-fold into complete RPMI media (10% FBS, 1% P/S) using the Biotek Micro Flow and Labcyte ECHO acoustic dispenser. Each plate contained up to 8 test compounds, with negative (No Drug Control) and 5 μM AZT positive controls. MT-4 cells were pre-infected with 10 μL of either RPMI (mock-infected) or a fresh 1:250 dilution of HIV-1 IIIB concentrated virus stock. Infected and uninfected MT-4 cells were further diluted in complete RPMI media and added to each plate using a Micro Flow dispenser. After 5 days incubation in a humidified and temperature controlled incubator (37° C.), Cell Titer Glo (Promega) was added to the assay plates and chemiluminescence read using an Envision plate-reader.
Assays were performed as above except uninfected MT-4 cells were added to each well containing test compound. In addition, […] puromycin was added to the last column of each assay plate to assess a base level of cytotoxicity.

HIV-1 (IIIB) = test: Antiviral assay in MT-4 cells; format: cell-based
Protocol: as §1

[2] = Human immunodeficiency virus 1, MT4, 120 h, HIV-1 IIIB in MT-4 cells, 5 days incubation, Cell Titer Glo, read-out: MT4 EC50

SMILES | EC50 (HIV-1 (IIIB); [2]) [nM] | CC50 at 5 days [1] [nM] | EC50 (HIV-1 (IIIB); Human immunodeficiency virus 1, IIIB, MT4, 120 h, read-out: MT4 EC50 (nM)) [nM]
CC1=NO[C@@]2(CC[C@H](C)N3C[C@H]2n2cc(C(=O)NCc4ccc(F)cc4F)c(=O)c(OC(=O)OCCC(C)C)c2C3=O)C1 [Example 150, (3′S,5S,7′R)-10′-((2,4-difluorobenzyl)carbamoyl)-3,3′-dimethyl-1′,11′-dioxo-1′,4′,5′,11′-tetrahydro-3′H,4H,7′H-spiro[isoxazole-5,6′-[2,7]methanopyrido[1,2-a][1,4]diazonin]-12′-yl isopentyl carbonate] | 0.153 | 16000 | 
CC1=NO[C@@]2(CC[C@H](C)N3C[C@H]2n2cc(C(=O)NCc4ccc(F)cc4F)c(=O)c(OC(=O)CCCCCCC(C)C)c2C3=O)C1 [Example 67, (3′S,5S,7′R)-10′-((2,4-difluorobenzyl)carbamoyl)-3,3′-dimethyl-1′,11′-dioxo-1′,4′,5′,11′-tetrahydro-3′H,4H,7′H-spiro[isoxazole-5,6′-[2,7]methanopyrido[1,2-a][1,4]diazonin]-12′-yl 8-methylnonanoate] | 0.196 | 18900 | 
CC1=NO[C@@]2(CC[C@H](C)N3C[C@H]2n2cc(C(=O)NCc4ccc(F)cc4F)c(=O)c(OC(=O)OCC(C)C)c2C3=O)C1 [Example 148, (3′S,5S,7′R)-10′-((2,4-difluorobenzyl)carbamoyl)-3,3′-dimethyl-1′,11′-dioxo-1′,4′,5′,11′-tetrahydro-3′H,4H,7′H-spiro[isoxazole-5,6′-[2,7]methanopyrido[1,2-a][1,4]diazonin]-12′-yl isobutyl carbonate] | 1.85 | 16100 | 
CC1=NO[C@@]2(CC[C@H](C)N3C[C@H]2n2cc(C(=O)NCc4ccc(F)cc4F)c(=O)c(OC(=O)CCCC(C)C)c2C3=O)C1 [Example 61, (3′S,5S,7′R)-10′-((2,4-difluorobenzyl)carbamoyl)-3,3′-dimethyl-1′,11′-dioxo-1′,4′,5′,11′-tetrahydro-3′H,4H,7′H-spiro[isoxazole-5,6′-[2,7]methanopyrido[1,2-a][1,4]diazonin]-12′-yl 5-methylhexanoate] | 0.733 | 20600 | 
COC1=NO[C@@]2(CC[C@H](C)N3C[C@H]2n2cc(C(=O)NCc4ccc(F)cc4F)c(=O)c(OC(=O)/C=C/C(=O)O)c2C3=O)C1 [Example 25, (E)-4-(((3′S,5S,7′R)-10′-((2,4-difluorobenzyl)carbamoyl)-3-methoxy-3′-methyl-1′,11′-dioxo-1′,4′,5′,11′-tetrahydro-3′H,4H,7′H-spiro[isoxazole-5,6′-[2,7]methanopyrido[1,2-a][1,4]diazonin]-12′-yl)oxy)-4-oxobut-2-enoic acid] |  | 16200 | 1.9
CC1=NO[C@@]2(CC[C@H](C)N3C[C@H]2n2cc(C(=O)NCc4ccc(F)cc4F)c(=O)c(OCOC(=O)OCCCCC(C)C)c2C3=O)C1 [Example 205, (((3′S,5S,7′R)-10′-((2,4-difluorobenzyl)carbamoyl)-3,3′-dimethyl-1′,11′-dioxo-1′,4′,5′,11′-tetrahydro-3′H,4H,7′H-spiro[isoxazole-5,6′-[2,7]methanopyrido[1,2-a][1,4]diazonin]-12′-yl)oxy)methyl (5-methylhexyl) carbonate] | 2.47 | 23100 | 

More lines, main results first:

EC50 (HIV-1 (IIIB); [2]) [nM] | SMILES | CC50 at 5 days [1] [nM] | EC50 (HIV-1 (IIIB); Human immunodeficiency virus 1, IIIB, MT4, 120 h, read-out: MT4 EC50 (nM)) [nM]
2.14 | CCCCCCCCCOC(=O)Oc1c2n(cc(C(=O)NCc3ccc(F)cc3F)c1=O)[C@@H]1CN(C2=O)[C@@H](C)CC[C@]12CC(OC)=NO2 [Example 138, (3′S,5S,7′R)-10′-((2,4-difluorobenzyl)carbamoyl)-3-methoxy-3′-methyl-1′,11′-dioxo-1′,4′,5′,11′-tetrahydro-3′H,4H,7′H-spiro[isoxazole-5,6′-[2,7]methanopyrido[1,2-a][1,4]diazonin]-12′-yl nonyl carbonate] | 14100 | 
1.72 | COC1=NO[C@@]2(CC[C@H](C)N3C[C@H]2n2cc(C(=O)NCc4ccc(F)cc4F)c(=O)c(OC(C)=O)c2C3=O)C1 [Example 28, (3′S,5S,7′R)-10′-((2,4-difluorobenzyl)carbamoyl)-3-methoxy-3′-methyl-1′,11′-dioxo-1′,4′,5′,11′-tetrahydro-3′H,4H,7′H-spiro[isoxazole-5,6′-[2,7]methanopyrido[1,2-a][1,4]diazonin]-12′-yl acetate] | 11600 | 
1.79 | COCCCCCC(=O)Oc1c2n(cc(C(=O)NCc3ccc(F)cc3F)c1=O)[C@@H]1CN(C2=O)[C@@H](C)CC[C@]12CC(C)=NO2 [Example 71, (3′S,5S,7′R)-10′-((2,4-difluorobenzyl)carbamoyl)-3,3′-dimethyl-1′,11′-dioxo-1′,4′,5′,11′-tetrahydro-3′H,4H,7′H-spiro[isoxazole-5,6′-[2,7]methanopyrido[1,2-a][1,4]diazonin]-12′-yl 6-methoxyhexanoate] | 19500 | 
4.59 | CCCCCCCCC(=O)OCOc1c2n(cc(C(=O)NCc3ccc(F)cc3F)c1=O)[C@@H]1CN(C2=O)[C@@H](C)CC[C@]12CC(OC)=NO2 [Example 97, (((3′S,5S,7′R)-10′-((2,4-difluorobenzyl)carbamoyl)-3-methoxy-3′-methyl-1′,11′-dioxo-1′,4′,5′,11′-tetrahydro-3′H,4H,7′H-spiro[isoxazole-5,6′-[2,7]methanopyrido[1,2-a][1,4]diazonin]-12′-yl)oxy)methyl nonanoate] | ≥ 50000 | 
27.2 | CCCCCCCCCCCCCCCCCC(=O)OCOc1c2n(cc(C(=O)NCc3ccc(F)cc3F)c1=O)[C@@H]1CN(C2=O)[C@@H](C)CC[C@]12CC(OC)=NO2 [Example 106, (((3′S,5S,7′R)-10′-((2,4-difluorobenzyl)carbamoyl)-3-methoxy-3′-methyl-1′,11′-dioxo-1′,4′,5′,11′-tetrahydro-3′H,4H,7′H-spiro[isoxazole-5,6′-[2,7]methanopyrido[1,2-a][1,4]diazonin]-12′-yl)oxy)methyl stearate] | ≥ 50000 | 
0.409 | CCCCCCCCOC(=O)Oc1c2n(cc(C(=O)NCc3ccc(F)cc3F)c1=O)[C@@H]1CN(C2=O)[C@@H](C)CC[C@]12CC(C)=NO2 [Example 135, (3′S,5S,7′R)-10′-((2,4-difluorobenzyl)carbamoyl)-3,3′-dimethyl-1′,11′-dioxo-1′,4′,5′,11′-tetrahydro-3′H,4H,7′H-spiro[isoxazole-5,6′-[2,7]methanopyrido[1,2-a][1,4]diazonin]-12′-yl octyl carbonate] | 14200 | 
0.496 | CCCCCCCCOC(=O)Oc1c2n(cc(C(=O)NCc3ccc(F)cc3F)c1=O)[C@@H]1CN(C2=O)[C@@H](C)CC[C@]12CC(OC)=NO2 [Example 136, (3′S,5S,7′R)-10′-((2,4-difluorobenzyl)carbamoyl)-3-methoxy-3′-methyl-1′,11′-dioxo-1′,4′,5′,11′-tetrahydro-3′H,4H,7′H-spiro[isoxazole-5,6′-[2,7]methanopyrido[1,2-a][1,4]diazonin]-12′-yl octyl carbonate] | 23500 | 
2.19 | CC1=NO[C@@]2(CC[C@H](C)N3C[C@H]2n2cc(C(=O)NCc4ccc(F)cc4F)c(=O)c(OCOC(=O)CCCC(C)C)c2C3=O)C1 [Example 118] | 18200 | 
